From the NIST ThermoML archive (doi:10.1016/j.tca.2011.08.025)

Experiment: molar heat capacity at constant pressure
Settings: 101.33 kPa, Crystal, Relaxation calorimetry

[Nd] [neodymium]
Settings | molar heat capacity at constant pressure [J/K/mol]
2.151 K | 0.8396
2.367 K | 1.016
2.581 K | 1.201
2.795 K | 1.394
3.01 K | 1.604
3.226 K | 1.824
3.438 K | 2.061
3.649 K | 2.3
3.86 K | 2.548
4.072 K | 2.809
4.282 K | 3.093
4.49 K | 3.38
4.705 K | 3.673
4.913 K | 3.971
5.122 K | 4.282
5.177 K | 4.343
5.328 K | 4.571
5.524 K | 4.815
5.736 K | 5.023
5.948 K | 5.221
6.156 K | 5.44
6.362 K | 5.633
6.569 K | 5.743
6.774 K | 5.889
6.98 K | 6.064
7.186 K | 6.234
7.391 K | 6.437
7.596 K | 6.646
7.801 K | 6.846
8.006 K | 7.013
8.204 K | 6.953
8.407 K | 6.62
8.613 K | 6.23
8.819 K | 5.945
9.025 K | 5.776
9.228 K | 5.667
9.431 K | 5.598
9.437 K | 5.599
9.634 K | 5.571
9.84 K | 5.554
10.04 K | 5.573
10.2 K | 5.561
10.39 K | 5.603
10.6 K | 5.69
10.81 K | 5.744
11.01 K | 5.812
11.21 K | 5.88
11.41 K | 5.952
11.63 K | 6.046
11.84 K | 6.143
12.03 K | 6.237
12.24 K | 6.337
12.44 K | 6.442
12.66 K | 6.573
12.86 K | 6.675
13.06 K | 6.796
13.26 K | 6.922
13.47 K | 7.055
13.68 K | 7.208
13.77 K | 7.145
13.88 K | 7.299
14.1 K | 7.441
14.28 K | 7.621
14.48 K | 7.747
14.69 K | 7.885
14.92 K | 8.025
15.12 K | 8.197
15.23 K | 8.285
15.32 K | 8.377
15.77 K | 8.706
16.3 K | 9.115
16.83 K | 9.61
17.36 K | 10.08
17.88 K | 10.46
18.09 K | 10.52
18.42 K | 10.87
18.95 K | 11.22
19.48 K | 11.63
20.09 K | 11.62
20.59 K | 11.44
21.1 K | 10.32
21.61 K | 10.49
22.17 K | 11.13
22.39 K | 11.25
26.7 K | 13.57
31.01 K | 15.8
35.3 K | 17.93
39.6 K | 19.66
43.89 K | 21.19
48.19 K | 22.54
52.48 K | 23.47
56.77 K | 24.17
61.06 K | 24.73
65.35 K | 25.19
69.65 K | 25.58
73.95 K | 25.83
78.25 K | 25.98
82.54 K | 26.16
86.85 K | 26.23
91.14 K | 26.36
95.45 K | 26.37
99.73 K | 26.49
104 K | 26.61
108.3 K | 26.65
112.6 K | 26.74
116.9 K | 26.72
121.2 K | 26.78
125.5 K | 26.72
129.8 K | 26.67
134 K | 26.77
138.3 K | 26.81
142.6 K | 26.97
146.8 K | 26.95
151.1 K | 27.04
155.4 K | 27.01
159.7 K | 26.93
164 K | 26.99
168.3 K | 27.12
172.6 K | 27.08
176.9 K | 27.2
181.2 K | 27.26
185.5 K | 27.14
189.8 K | 27.14
194.1 K | 27.14
198.3 K | 27.21
202.6 K | 27.44
206.9 K | 27.36
211.2 K | 27.35
215.5 K | 27.48
219.8 K | 27.48
224.1 K | 27.64
228.4 K | 27.65
232.7 K | 27.61
237 K | 27.52
241.3 K | 27.5
245.6 K | 27.95
249.8 K | 27.71
254.1 K | 27.92
258.4 K | 27.8
262.7 K | 27.77
267 K | 27.72
271.3 K | 28.15
275.6 K | 27.76
279.9 K | 28.06
284.2 K | 28.25
288.5 K | 28.11
292.8 K | 28.27
297.1 K | 28.29
301.5 K | 28.22

[Al] [aluminum]
Settings | molar heat capacity at constant pressure [J/K/mol]
5.284 K | 0.011
9.67 K | 0.035
14.08 K | 0.085
18.45 K | 0.181
22.82 K | 0.341
27.12 K | 0.602
31.49 K | 0.992
35.83 K | 1.526
40.18 K | 2.149
44.52 K | 2.841
48.85 K | 3.64
53.19 K | 4.446
57.52 K | 5.317
61.85 K | 6.177
66.18 K | 7.052
70.51 K | 7.917
74.83 K | 8.774
79.16 K | 9.582
83.49 K | 10.38
87.82 K | 11.08
92.15 K | 11.77
96.47 K | 12.46
100.7 K | 13.15
105.1 K | 13.74
109.4 K | 14.29
113.7 K | 14.88
118 K | 15.37
122.4 K | 15.87
126.7 K | 16.34
131 K | 16.78
135.3 K | 17.22
139.7 K | 17.63
144 K | 17.97
148.3 K | 18.36
152.6 K | 18.61
156.9 K | 18.93
161.2 K | 19.21
165.6 K | 19.46
169.9 K | 19.74
174.2 K | 20.03
178.5 K | 20.29
182.8 K | 20.49
187.1 K | 20.74
191.4 K | 20.96
195.7 K | 21.15
200.1 K | 21.31
204.4 K | 21.47
208.7 K | 21.66
213 K | 21.83
217.3 K | 22.01
221.7 K | 22.2
226 K | 22.34
230.3 K | 22.46
234.6 K | 22.58
238.9 K | 22.73
243.3 K | 22.82
247.6 K | 22.99
251.9 K | 23.05
256.2 K | 23.21
260.5 K | 23.34
264.9 K | 23.48
269.2 K | 23.61
273.5 K | 23.7
277.8 K | 23.73
282.1 K | 23.82
286.4 K | 23.93
290.8 K | 24.02
295.1 K | 24.12
299.4 K | 24.14
303.8 K | 24.21
